Measurements from US7399871B2, “Crystal forms of (S)-(+)-N,N-dimethyl-3-(1-naphthalenyloxy)-3-(2-thienyl)propanamine oxalate and the preparation thereof” (Teva Pharmaceutical Industries Ltd., priority 2005, dated 2008).

Assay: Storage stability of DNT-Oxal crystal forms (polymorphic form by XRD)
Assay type: physicochemical
Settings: stored at room temperature for 11 months; for Crystal form after the storage: crystal form before vs after the storage, oxalate
Method: Crystal forms of DNT-Oxal were stored at room temperature for 11 months. […] The forms of DNT-Oxal were identified using a Scintag X-ray powder diffractometer model X'TRA with a Cu-tube solid state detector. The sample holder was a round standard aluminum sample holder with rough zero background quartz plate with a cavity having a diameter of 25 mm and a depth of 0.5 mm. The scanning parameters were as follows: a range of 2° to 40° 2θ; a continuous scan mode, and a step size of 0.05° at a rate of 3°/minute.

Polymorphic stability on storage | Crystal form after the storage | SMILES
polymorphically stable | Form II | CN(C)CC[C@H](Oc1cccc2ccccc12)c1cccs1.O=C(O)C(=O)O [Form II, (S)-(+)-N,N-Dimethyl-3-(1-naphthalenyloxy)-3-(2-thienyl)propanamine oxalate]
polymorphically stable | Form III | CN(C)CC[C@H](Oc1cccc2ccccc12)c1cccs1.O=C(O)C(=O)O [Form III, (S)-(+)-N,N-Dimethyl-3-(1-naphthalenyloxy)-3-(2-thienyl)propanamine oxalate]
